From ChEMBL document CHEMBL4507257, “Data for DCP probe ABT-100” (2021)

Key:
[1] = tested on: Tyrosine-protein kinase ABL1 (Homo sapiens), P00519 [F317I]; details: Compound concentration 1000.0 nM
[2] = tested on: Tyrosine-protein kinase ABL1 (Homo sapiens), P00519 [Q252H]; details: Compound concentration 1000.0 nM
[3] = target: Bone morphogenetic protein receptor type-1A (Homo sapiens) (UniProt P36894); details: Compound concentration 1000.0 nM
[4] = target: Calcium/calmodulin-dependent protein kinase type 1B (Homo sapiens, UniProt Q6P2M8); details: Compound concentration 1000.0 nM
[5] = target: Serine/threonine-protein kinase Chk1 (Homo sapiens) (UniProt O14757); details: Compound concentration 1000.0 nM
[6] = target: Death-associated protein kinase 2 (Homo sapiens) (UniProt Q9UIK4); details: Compound concentration 1000.0 nM
Sequence of Death-associated protein kinase 2 (Homo sapiens) (Q9UIK4 whole entry, looked up, the tested form may be a part): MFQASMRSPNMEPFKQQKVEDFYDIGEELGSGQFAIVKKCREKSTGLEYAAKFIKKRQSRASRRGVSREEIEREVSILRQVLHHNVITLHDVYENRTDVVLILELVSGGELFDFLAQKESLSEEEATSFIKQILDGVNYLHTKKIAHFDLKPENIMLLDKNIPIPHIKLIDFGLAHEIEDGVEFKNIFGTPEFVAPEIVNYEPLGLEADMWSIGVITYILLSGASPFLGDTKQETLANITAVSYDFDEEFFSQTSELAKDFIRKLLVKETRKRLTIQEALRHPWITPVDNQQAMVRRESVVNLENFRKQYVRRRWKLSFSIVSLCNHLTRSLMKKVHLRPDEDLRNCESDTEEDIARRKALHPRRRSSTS

[7] = target: Epithelial discoidin domain-containing receptor 1 (Homo sapiens) (UniProt Q08345); details: Compound concentration 1000.0 nM
[8] = tested on: Epidermal growth factor receptor (Homo sapiens), P00533 [UNDEFINED MUTATION]; details: Compound concentration 1000.0 nM
[9] = tested on: Epidermal growth factor receptor (Homo sapiens), P00533 [L858R,T790M]; details: Compound concentration 1000.0 nM
[10] = target: Ephrin type-A receptor 1 (Homo sapiens) (UniProt P21709); details: Compound concentration 1000.0 nM
[11] = target: Ephrin type-B receptor 2 (Homo sapiens) (UniProt P29323); details: Compound concentration 1000.0 nM
[12] = target: Receptor tyrosine-protein kinase erbB-4 (Homo sapiens) (UniProt Q15303); details: Compound concentration 1000.0 nM
[13] = target: Fibroblast growth factor receptor 4 (Homo sapiens) (UniProt P22455); details: Compound concentration 1000.0 nM
[14] = tested on: Receptor-type tyrosine-protein kinase FLT3 (Homo sapiens), P36888 [UNDEFINED MUTATION]; details: Compound concentration 1000.0 nM
[15] = target: Tyrosine-protein kinase Lck (Homo sapiens) (UniProt P06239); details: Compound concentration 1000.0 nM
[16] = target: Serine/threonine-protein kinase STK11 (Homo sapiens) (UniProt Q15831); details: Compound concentration 1000.0 nM
[17] = target: Leukocyte tyrosine kinase receptor (Homo sapiens) (UniProt P29376); details: Compound concentration 1000.0 nM
Sequence of Leukocyte tyrosine kinase receptor (Homo sapiens) (P29376 whole entry): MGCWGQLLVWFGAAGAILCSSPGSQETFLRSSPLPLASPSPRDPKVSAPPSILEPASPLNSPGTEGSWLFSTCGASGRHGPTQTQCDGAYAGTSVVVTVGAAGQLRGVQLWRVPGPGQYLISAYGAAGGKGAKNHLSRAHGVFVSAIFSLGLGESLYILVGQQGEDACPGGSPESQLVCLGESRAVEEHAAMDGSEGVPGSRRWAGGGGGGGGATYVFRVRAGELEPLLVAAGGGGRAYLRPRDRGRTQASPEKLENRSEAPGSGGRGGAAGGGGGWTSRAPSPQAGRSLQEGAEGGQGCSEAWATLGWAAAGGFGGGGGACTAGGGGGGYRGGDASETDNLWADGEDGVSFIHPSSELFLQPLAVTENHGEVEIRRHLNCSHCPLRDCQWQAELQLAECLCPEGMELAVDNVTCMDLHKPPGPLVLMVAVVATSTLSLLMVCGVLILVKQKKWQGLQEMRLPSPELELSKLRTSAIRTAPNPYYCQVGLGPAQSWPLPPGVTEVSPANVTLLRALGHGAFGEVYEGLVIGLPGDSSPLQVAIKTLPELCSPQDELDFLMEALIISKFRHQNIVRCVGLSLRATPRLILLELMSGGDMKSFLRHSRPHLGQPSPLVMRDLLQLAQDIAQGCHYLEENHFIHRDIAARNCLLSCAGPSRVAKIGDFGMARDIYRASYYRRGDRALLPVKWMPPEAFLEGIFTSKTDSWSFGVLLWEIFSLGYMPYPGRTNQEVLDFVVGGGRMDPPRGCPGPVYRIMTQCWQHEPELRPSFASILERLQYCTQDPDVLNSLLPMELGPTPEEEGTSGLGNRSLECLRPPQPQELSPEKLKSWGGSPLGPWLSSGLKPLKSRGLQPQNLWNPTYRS

[18] = target: Tyrosine-protein kinase Lyn (Homo sapiens) (UniProt P07948); details: Compound concentration 1000.0 nM
[19] = target: Mitogen-activated protein kinase kinase kinase 15 (Homo sapiens) (UniProt Q6ZN16); details: Compound concentration 1000.0 nM
Sequence of Mitogen-activated protein kinase kinase kinase 15 (Homo sapiens) (Q6ZN16 whole entry): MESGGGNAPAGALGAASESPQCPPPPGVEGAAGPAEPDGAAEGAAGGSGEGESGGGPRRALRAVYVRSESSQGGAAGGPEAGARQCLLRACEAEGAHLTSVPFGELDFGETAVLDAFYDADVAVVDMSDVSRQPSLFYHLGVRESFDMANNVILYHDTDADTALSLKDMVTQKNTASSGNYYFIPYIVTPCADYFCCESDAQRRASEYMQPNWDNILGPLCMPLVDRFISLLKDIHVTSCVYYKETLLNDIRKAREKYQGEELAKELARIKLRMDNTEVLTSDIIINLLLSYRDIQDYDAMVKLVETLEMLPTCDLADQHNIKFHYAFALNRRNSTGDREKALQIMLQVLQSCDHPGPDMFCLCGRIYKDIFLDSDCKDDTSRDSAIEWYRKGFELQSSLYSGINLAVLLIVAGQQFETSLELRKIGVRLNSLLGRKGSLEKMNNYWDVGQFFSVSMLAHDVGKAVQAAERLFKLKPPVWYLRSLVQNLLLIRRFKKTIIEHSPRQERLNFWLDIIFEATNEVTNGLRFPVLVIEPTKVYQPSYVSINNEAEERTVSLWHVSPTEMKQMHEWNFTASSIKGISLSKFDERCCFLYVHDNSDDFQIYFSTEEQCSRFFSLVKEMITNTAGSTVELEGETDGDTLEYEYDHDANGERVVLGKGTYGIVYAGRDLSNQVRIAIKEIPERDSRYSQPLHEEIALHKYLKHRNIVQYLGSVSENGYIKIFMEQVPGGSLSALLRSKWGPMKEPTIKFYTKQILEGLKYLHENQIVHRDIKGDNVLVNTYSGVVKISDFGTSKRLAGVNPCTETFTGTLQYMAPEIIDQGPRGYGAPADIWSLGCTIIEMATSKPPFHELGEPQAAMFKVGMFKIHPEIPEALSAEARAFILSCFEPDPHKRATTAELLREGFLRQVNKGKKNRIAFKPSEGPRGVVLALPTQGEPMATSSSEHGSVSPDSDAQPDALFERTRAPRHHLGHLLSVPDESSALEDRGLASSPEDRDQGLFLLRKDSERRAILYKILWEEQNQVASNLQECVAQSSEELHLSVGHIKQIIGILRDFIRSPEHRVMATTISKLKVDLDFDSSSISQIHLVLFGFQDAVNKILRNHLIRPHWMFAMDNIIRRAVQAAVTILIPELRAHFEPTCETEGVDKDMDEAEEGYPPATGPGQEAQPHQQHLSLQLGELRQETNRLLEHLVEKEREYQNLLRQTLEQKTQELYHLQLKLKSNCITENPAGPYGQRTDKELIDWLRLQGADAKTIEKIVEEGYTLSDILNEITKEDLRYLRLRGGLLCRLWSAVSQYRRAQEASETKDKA

[20] = target: Mitogen-activated protein kinase kinase kinase 3 (Homo sapiens) (UniProt Q99759); details: Compound concentration 1000.0 nM
Sequence of Mitogen-activated protein kinase kinase kinase 3 (Homo sapiens) (Q99759 whole entry): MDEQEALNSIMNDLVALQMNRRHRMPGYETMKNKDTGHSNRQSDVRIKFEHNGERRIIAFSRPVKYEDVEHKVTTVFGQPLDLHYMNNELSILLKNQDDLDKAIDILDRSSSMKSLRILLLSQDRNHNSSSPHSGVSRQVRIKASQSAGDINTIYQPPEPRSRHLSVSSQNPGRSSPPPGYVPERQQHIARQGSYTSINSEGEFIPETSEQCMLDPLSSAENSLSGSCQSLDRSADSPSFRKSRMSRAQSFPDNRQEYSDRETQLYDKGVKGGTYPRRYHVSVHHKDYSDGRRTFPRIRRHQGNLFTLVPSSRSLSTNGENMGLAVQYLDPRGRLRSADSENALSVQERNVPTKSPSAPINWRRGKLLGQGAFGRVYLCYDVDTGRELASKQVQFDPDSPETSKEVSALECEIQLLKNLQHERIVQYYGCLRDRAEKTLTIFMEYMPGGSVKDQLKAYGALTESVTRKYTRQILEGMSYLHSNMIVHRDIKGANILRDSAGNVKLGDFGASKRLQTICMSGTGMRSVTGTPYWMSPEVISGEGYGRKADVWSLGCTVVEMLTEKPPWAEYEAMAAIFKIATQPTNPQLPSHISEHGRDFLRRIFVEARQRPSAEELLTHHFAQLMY

[21] = target: Microtubule-associated serine/threonine-protein kinase 1 (Homo sapiens) (UniProt Q9Y2H9); details: Compound concentration 1000.0 nM
[22] = target: Dual specificity mitogen-activated protein kinase kinase 4 (Homo sapiens) (UniProt P45985); details: Compound concentration 1000.0 nM
[23] = target: Mitogen-activated protein kinase kinase kinase 11 (Homo sapiens) (UniProt Q16584); details: Compound concentration 1000.0 nM
Sequence of Mitogen-activated protein kinase kinase kinase 11 (Homo sapiens) (Q16584 whole entry, looked up): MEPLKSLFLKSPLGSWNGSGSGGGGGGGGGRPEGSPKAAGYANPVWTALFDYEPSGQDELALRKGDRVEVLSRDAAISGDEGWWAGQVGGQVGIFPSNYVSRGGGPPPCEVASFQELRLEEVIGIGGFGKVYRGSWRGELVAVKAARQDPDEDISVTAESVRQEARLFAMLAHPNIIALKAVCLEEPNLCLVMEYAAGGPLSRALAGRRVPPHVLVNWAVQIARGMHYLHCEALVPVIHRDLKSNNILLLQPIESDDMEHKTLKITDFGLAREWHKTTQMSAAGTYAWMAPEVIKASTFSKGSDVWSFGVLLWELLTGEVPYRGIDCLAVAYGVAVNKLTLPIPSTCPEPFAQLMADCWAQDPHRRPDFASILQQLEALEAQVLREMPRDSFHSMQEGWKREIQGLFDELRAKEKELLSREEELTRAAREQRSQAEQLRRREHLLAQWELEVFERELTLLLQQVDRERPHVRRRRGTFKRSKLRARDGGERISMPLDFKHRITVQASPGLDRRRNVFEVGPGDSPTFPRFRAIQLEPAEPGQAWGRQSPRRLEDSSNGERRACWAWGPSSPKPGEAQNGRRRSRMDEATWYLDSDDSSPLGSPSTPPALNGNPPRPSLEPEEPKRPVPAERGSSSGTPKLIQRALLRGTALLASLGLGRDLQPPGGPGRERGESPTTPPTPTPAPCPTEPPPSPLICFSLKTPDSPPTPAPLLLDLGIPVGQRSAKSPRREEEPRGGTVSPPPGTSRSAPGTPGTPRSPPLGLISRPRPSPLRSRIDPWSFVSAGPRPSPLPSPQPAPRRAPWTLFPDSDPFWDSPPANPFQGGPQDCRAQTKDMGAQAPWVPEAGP

[24] = target: Myosin light chain kinase family member 4 (Homo sapiens) (UniProt Q86YV6); details: Compound concentration 1000.0 nM
[25] = target: Phosphatidylinositol 5-phosphate 4-kinase type-2 beta (Homo sapiens) (UniProt P78356); details: Compound concentration 1000.0 nM
[26] = target: Phosphatidylinositol 5-phosphate 4-kinase type-2 gamma (Homo sapiens) (UniProt Q8TBX8); details: Compound concentration 1000.0 nM
[27] = target: Serine/threonine-protein kinase PLK2 (Homo sapiens) (UniProt Q9NYY3); details: Compound concentration 1000.0 nM
[28] = target: Protein kinase C epsilon type (Homo sapiens) (UniProt Q02156); details: Compound concentration 1000.0 nM
Sequence of Protein kinase C epsilon type (Homo sapiens) (Q02156 whole entry): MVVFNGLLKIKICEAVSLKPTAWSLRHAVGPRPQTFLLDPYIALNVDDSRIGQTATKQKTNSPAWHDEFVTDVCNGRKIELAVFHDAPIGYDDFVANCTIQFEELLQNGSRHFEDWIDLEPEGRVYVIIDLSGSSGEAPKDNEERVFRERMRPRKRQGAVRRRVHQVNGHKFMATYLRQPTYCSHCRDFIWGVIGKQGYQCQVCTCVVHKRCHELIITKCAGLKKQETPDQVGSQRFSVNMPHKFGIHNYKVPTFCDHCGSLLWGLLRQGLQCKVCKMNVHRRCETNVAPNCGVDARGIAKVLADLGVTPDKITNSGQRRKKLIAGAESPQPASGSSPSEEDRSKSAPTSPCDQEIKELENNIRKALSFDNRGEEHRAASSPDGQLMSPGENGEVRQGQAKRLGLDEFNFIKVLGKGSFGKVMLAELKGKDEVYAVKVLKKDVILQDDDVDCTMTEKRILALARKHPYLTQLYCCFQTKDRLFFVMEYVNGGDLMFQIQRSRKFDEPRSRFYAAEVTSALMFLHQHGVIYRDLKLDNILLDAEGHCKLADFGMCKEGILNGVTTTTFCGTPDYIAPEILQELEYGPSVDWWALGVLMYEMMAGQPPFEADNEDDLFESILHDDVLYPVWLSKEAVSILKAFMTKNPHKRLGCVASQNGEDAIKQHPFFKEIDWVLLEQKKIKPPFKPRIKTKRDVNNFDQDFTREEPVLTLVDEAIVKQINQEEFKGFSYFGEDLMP

[29] = target: Protein kinase C eta type (Homo sapiens) (UniProt P24723); details: Compound concentration 1000.0 nM
[30] = target: Receptor-interacting serine/threonine-protein kinase 2 (Homo sapiens) (UniProt O43353); details: Compound concentration 1000.0 nM
[31] = target: Ribosomal protein S6 kinase alpha-4 (Homo sapiens) (UniProt O75676); details: Compound concentration 1000.0 nM
[32] = target: Ribosomal protein S6 kinase alpha-5 (Homo sapiens) (UniProt O75582); details: Compound concentration 1000.0 nM
[33] = target: Serine/threonine-protein kinase Sgk3 (Homo sapiens) (UniProt Q96BR1); details: Compound concentration 1000.0 nM
[34] = target: Tyrosine-protein kinase Srms (Homo sapiens) (UniProt Q9H3Y6); details: Compound concentration 1000.0 nM
[35] = target: SRSF protein kinase 2 (Homo sapiens) (UniProt P78362); details: Compound concentration 1000.0 nM
[36] = target: Testis-specific serine/threonine-protein kinase 3 (Homo sapiens) (UniProt Q96PN8); details: Compound concentration 1000.0 nM
Sequence of Testis-specific serine/threonine-protein kinase 3 (Homo sapiens) (Q96PN8 whole entry): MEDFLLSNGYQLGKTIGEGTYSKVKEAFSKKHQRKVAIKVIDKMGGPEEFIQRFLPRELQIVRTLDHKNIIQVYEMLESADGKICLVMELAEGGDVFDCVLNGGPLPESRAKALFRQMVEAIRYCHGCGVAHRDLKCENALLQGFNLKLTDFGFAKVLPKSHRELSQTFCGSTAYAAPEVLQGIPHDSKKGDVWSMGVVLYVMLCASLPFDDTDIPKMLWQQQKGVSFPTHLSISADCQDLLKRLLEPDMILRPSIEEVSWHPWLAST

[37] = target: Dual specificity protein kinase TTK (Homo sapiens) (UniProt P33981); details: Compound concentration 1000.0 nM
[38] = target: T1, Muscarinic acetylcholine receptor M5 (Homo sapiens) (UniProt P08912); details: Compound concentration 10.0 uM
T1 sequence (whole entry): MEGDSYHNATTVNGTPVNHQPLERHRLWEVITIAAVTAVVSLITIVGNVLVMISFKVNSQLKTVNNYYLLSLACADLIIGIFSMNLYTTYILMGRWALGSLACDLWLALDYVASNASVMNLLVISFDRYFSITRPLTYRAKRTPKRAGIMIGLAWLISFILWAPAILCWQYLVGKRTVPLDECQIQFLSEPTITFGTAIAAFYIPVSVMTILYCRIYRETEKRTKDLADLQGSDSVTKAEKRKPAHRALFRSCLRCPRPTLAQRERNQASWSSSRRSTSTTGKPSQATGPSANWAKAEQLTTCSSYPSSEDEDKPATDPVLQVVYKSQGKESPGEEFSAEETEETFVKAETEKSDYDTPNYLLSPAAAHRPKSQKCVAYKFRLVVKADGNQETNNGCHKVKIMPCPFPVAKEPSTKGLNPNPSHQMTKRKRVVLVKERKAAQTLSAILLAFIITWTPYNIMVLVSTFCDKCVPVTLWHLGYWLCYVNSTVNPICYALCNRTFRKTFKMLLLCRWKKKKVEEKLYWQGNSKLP

SMILES	residual activity [1] [%]	residual activity [2] [%]	residual activity [3] [%]	residual activity [4] [%]	residual activity [5] [%]	residual activity [6] [%]	residual activity [7] [%]	residual activity [8] [%]	residual activity [9] [%]	residual activity [10] [%]	residual activity [11] [%]	residual activity [12] [%]	residual activity [13] [%]	residual activity [14] [%]	residual activity [15] [%]	residual activity [16] [%]	residual activity [17] [%]	residual activity [18] [%]	residual activity [19] [%]	residual activity [20] [%]	other results
Cn1cncc1[C@@](O)(COc1ccc(C#N)cc1-c1ccc(OC(F)(F)F)cc1)c1ccc(C#N)cc1 [A-108]	100	76	100	100	100	97	100	100	96	93	100	100	100	100	100	100	100	100	83	81	residual activity [21]: 100%; residual activity [22]: 100%; residual activity [23]: 100%; residual activity [24]: 97%; residual activity [25]: 100%; residual activity [26]: 96%; residual activity [27]: 86%; residual activity [28]: 100%; residual activity [29]: 95%; residual activity [30]: 100%; residual activity [31]: 93%; residual activity [32]: 88%; residual activity [33]: 100%; residual activity [34]: 100%; residual activity [35]: 55%; residual activity [36]: 100%; residual activity [37]: 100%; inhibition [38]: 1.23%
Cn1cncc1[C@](O)(COc1ccc(C#N)cc1-c1ccc(OC(F)(F)F)cc1)c1ccc(C#N)cc1 [ABT-100]	98	96	91	60	97	82	97	76	100	38	94	81	100	98	82	71	91	90	90	100	residual activity [21]: 92%; residual activity [22]: 89%; residual activity [23]: 86%; residual activity [24]: 93%; residual activity [25]: 100%; residual activity [26]: 87%; residual activity [27]: 94%; residual activity [28]: 79%; residual activity [29]: 94%; residual activity [30]: 100%; residual activity [31]: 89%; residual activity [32]: 94%; residual activity [33]: 100%; residual activity [34]: 79%; residual activity [35]: 100%; residual activity [36]: 98%; residual activity [37]: 100%; inhibition [38]: -4.82%
